Reference: PMC11864979, “First-in-class ultralong-target-residence-time p38α inhibitors as a mitosis-targeted therapy for colorectal cancer” (Nature Cancer, 2025)
Where two headings read alike, the source gives them in different places.

Tests used:
Experiment in all cases: selectivity profiling in a panel of 340 wild-type kinases (Reaction Biology Europe)
Assay type in all cases: binding
340 wild-type kinases [1] = molecular target: T1, 340 wild-type kinases (Homo sapiens, UniProt Q96SB4)
T1 construct: purchased Reaction Biology Europe

340 wild-type kinases [2] = molecular target: T2, 340 wild-type kinases (Homo sapiens, UniProt P51617)
T2 construct: purchased Reaction Biology Europe

340 wild-type kinases [3] = molecular target: T3, 340 wild-type kinases (Homo sapiens, UniProt P53355)
T3 construct: purchased Reaction Biology Europe

340 wild-type kinases [4] = molecular target: T4, 340 wild-type kinases (Homo sapiens, UniProt Q9BYP7)
T4 construct: purchased Reaction Biology Europe

340 wild-type kinases [5] = molecular target: T5, 340 wild-type kinases (Homo sapiens, UniProt Q96PF2)
T5 construct: purchased Reaction Biology Europe
T5 sequence (Q96PF2 1-358): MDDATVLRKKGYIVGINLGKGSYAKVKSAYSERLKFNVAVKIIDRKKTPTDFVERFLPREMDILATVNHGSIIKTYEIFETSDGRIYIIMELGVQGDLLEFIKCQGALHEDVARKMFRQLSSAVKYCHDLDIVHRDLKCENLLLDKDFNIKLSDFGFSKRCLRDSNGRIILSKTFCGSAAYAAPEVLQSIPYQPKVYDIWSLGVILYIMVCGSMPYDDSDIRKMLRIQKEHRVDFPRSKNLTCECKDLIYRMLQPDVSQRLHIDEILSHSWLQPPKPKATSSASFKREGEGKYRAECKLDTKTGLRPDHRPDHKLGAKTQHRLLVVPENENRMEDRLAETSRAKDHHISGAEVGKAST

340 wild-type kinases [6] = molecular target: T6, 340 wild-type kinases (Homo sapiens, UniProt Q9H422)
T6 construct: purchased Reaction Biology Europe

340 wild-type kinases [7] = molecular target: T7, 340 wild-type kinases (Homo sapiens, UniProt P29323)
T7 construct: purchased Reaction Biology Europe
T7 sequence (P29323 19-1055): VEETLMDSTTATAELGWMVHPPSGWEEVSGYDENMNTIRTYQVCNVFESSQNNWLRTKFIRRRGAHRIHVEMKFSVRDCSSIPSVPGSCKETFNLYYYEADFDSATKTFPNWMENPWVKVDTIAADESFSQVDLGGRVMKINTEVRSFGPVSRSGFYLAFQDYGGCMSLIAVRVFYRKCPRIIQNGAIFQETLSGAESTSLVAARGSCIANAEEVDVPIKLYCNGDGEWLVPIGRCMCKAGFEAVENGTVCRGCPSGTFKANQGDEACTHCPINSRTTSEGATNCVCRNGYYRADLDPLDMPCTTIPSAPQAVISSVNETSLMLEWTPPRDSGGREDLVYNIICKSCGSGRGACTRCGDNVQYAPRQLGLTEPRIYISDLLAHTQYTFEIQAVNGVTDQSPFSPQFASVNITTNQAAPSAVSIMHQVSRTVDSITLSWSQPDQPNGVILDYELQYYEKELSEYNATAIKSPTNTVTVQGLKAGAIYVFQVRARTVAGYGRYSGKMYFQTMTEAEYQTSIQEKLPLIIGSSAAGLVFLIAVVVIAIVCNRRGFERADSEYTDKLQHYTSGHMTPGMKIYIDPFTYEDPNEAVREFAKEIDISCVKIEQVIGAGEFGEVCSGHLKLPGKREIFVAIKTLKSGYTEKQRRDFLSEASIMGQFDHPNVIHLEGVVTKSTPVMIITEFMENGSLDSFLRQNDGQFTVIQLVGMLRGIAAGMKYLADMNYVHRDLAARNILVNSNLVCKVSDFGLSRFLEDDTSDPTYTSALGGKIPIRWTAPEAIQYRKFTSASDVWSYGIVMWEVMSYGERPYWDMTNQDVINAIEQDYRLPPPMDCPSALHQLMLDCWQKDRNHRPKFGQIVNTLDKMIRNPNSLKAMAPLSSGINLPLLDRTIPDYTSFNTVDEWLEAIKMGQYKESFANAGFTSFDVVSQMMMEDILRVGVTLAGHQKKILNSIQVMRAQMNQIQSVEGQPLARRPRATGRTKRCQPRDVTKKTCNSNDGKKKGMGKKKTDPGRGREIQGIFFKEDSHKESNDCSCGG

T1 sequence (Q96SB4 whole entry): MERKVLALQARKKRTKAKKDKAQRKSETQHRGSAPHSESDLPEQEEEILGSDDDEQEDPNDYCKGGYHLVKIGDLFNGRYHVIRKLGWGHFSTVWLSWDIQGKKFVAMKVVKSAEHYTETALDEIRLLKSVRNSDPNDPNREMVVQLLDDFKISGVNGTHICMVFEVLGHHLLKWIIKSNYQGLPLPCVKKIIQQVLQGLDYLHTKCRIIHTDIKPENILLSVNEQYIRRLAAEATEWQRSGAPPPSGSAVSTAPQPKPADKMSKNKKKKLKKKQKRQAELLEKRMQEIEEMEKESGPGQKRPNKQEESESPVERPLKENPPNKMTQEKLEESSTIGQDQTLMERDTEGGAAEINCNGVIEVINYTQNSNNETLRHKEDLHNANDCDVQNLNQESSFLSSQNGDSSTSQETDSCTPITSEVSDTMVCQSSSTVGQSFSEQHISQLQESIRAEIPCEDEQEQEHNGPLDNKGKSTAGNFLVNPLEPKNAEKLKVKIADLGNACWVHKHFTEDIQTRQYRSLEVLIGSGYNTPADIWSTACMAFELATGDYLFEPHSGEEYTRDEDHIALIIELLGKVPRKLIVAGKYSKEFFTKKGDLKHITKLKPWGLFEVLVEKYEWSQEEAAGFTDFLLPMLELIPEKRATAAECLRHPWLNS
T3 sequence (P53355 whole entry): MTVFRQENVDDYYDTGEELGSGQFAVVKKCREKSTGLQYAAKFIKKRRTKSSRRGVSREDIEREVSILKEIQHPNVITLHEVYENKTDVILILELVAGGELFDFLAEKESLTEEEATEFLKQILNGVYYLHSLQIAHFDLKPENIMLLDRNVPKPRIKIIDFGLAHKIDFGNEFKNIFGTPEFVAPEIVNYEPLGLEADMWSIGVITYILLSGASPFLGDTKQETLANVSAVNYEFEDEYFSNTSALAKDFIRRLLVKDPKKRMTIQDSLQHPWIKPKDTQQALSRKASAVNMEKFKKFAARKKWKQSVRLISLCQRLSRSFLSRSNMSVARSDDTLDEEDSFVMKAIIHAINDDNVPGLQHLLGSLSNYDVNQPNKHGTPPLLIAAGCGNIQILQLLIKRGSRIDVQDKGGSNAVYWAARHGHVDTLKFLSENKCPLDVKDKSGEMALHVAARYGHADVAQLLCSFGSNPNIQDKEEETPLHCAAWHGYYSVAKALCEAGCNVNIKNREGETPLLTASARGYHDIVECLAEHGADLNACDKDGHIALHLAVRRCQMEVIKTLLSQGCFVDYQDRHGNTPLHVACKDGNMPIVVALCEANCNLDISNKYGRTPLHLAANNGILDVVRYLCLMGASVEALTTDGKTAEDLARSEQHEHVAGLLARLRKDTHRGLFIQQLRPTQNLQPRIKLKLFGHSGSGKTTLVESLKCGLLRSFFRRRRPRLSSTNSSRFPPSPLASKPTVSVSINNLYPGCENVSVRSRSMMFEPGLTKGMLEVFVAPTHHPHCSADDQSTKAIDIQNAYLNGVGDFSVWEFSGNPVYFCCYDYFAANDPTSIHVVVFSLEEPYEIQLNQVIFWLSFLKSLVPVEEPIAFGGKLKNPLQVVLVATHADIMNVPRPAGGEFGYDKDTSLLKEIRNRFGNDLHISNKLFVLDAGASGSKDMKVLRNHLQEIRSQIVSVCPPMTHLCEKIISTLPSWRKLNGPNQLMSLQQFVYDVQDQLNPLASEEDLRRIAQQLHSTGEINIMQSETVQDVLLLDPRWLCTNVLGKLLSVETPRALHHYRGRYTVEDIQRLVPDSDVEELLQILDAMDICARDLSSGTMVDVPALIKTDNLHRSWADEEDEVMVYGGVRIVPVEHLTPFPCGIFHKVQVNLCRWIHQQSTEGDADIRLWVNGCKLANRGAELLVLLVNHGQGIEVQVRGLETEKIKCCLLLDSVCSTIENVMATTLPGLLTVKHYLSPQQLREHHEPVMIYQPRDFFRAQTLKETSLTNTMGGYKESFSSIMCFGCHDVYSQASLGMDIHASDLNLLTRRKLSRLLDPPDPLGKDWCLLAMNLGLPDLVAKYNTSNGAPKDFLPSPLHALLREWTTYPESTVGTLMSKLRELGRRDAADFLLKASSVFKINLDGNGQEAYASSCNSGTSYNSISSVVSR
T6 sequence (Q9H422 whole entry): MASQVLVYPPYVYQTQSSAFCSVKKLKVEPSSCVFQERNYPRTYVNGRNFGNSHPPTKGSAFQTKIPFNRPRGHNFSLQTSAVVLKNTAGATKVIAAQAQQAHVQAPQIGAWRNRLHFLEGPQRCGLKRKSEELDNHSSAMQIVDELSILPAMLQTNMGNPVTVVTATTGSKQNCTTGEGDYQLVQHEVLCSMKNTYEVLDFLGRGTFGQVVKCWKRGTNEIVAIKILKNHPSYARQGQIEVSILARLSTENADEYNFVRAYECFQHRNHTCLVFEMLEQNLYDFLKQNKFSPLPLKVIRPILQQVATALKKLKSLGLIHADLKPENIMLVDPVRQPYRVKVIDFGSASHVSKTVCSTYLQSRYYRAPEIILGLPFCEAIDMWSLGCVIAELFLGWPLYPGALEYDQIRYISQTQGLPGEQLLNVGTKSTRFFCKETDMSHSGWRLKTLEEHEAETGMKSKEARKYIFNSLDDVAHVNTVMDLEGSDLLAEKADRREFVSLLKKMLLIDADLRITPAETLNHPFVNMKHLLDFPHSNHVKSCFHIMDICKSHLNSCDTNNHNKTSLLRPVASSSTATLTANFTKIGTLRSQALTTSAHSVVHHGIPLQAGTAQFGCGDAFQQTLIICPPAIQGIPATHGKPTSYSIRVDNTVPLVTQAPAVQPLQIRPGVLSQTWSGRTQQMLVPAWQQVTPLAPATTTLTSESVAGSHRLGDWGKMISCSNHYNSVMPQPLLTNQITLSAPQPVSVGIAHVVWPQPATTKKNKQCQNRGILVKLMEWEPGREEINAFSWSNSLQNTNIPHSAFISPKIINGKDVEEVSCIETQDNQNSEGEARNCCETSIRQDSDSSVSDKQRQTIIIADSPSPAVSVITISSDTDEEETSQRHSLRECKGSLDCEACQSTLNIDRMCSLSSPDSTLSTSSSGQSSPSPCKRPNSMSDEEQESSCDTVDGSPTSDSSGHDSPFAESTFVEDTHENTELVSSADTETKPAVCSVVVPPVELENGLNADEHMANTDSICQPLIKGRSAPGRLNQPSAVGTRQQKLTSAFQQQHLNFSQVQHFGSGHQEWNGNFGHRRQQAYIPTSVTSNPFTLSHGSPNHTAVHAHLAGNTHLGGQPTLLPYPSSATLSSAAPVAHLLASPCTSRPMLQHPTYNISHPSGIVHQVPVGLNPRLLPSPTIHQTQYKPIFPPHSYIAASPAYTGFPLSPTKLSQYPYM
T4 sequence (Q9BYP7 whole entry): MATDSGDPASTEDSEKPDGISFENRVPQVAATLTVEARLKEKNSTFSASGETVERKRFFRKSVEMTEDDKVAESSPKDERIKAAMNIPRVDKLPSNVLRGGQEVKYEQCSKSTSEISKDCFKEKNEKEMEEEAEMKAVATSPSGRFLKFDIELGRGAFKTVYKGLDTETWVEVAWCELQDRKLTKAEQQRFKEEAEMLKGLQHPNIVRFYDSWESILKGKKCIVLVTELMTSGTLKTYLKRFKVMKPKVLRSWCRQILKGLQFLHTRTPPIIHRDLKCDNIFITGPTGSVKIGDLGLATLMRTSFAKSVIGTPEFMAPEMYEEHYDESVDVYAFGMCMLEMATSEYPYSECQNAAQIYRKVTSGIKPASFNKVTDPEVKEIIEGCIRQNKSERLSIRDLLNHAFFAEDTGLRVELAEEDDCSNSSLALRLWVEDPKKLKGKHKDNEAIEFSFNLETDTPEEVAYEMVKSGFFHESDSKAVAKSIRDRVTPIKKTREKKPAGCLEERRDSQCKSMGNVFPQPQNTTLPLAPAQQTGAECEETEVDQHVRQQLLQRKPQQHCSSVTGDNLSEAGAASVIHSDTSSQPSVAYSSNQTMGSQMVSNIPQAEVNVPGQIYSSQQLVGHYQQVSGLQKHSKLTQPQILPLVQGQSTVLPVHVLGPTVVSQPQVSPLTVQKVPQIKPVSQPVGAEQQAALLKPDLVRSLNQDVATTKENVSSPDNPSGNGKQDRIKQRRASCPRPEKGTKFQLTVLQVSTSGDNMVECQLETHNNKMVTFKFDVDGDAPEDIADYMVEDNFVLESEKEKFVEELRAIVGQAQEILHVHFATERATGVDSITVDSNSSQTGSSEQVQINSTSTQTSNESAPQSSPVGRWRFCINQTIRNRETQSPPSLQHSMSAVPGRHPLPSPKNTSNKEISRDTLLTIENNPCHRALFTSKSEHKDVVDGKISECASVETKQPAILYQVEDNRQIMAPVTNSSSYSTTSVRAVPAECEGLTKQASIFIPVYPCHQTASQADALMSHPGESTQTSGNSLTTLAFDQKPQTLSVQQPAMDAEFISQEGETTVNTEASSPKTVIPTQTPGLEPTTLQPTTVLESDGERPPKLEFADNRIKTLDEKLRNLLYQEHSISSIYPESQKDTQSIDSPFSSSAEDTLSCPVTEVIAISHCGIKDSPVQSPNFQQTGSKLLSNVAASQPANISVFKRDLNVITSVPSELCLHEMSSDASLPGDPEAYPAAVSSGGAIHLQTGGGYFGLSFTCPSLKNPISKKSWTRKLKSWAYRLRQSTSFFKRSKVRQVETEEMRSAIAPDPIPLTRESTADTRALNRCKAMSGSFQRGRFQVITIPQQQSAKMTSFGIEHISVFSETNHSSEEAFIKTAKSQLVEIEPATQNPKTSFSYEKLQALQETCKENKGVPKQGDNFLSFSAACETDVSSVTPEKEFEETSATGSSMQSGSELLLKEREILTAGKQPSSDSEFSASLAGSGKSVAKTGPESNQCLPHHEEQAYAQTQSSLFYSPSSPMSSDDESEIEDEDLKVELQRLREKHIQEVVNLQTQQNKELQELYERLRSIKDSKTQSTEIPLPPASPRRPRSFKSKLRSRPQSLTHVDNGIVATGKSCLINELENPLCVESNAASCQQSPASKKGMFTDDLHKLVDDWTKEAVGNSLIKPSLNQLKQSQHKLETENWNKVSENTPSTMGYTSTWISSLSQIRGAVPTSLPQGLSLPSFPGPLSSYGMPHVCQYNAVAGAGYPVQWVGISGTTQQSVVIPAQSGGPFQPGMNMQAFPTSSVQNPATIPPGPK

`CNC(=O)c1ccc2c(c1)C(=O)c1ccc(Nc3ccc(F)c(NC(=O)C4CC4)c3)cc1CC2` [Compound 2015] was tested, and the remaining activity at 0.2 µM (340 wild-type kinases [1]; 0.2 µM 2015, read-out: SRPK1 residual activity) was 108%, the remaining activity at 1 µM (340 wild-type kinases [1]; 1 µM 2015, read-out: SRPK1 residual activity) was 105% and the remaining activity at 0.2 µM (340 wild-type kinases [1]; SRPK1, 0.2 µM, read-out: residual activity) was 108%. The remaining activity at 1 µM (340 wild-type kinases [1]; SRPK1, 1 µM, read-out: residual activity) was 105%, the remaining activity at 0.2 µM (340 wild-type kinases [2]; 0.2 µM 2015, read-out: IRAK1 residual activity) was 108% and the remaining activity at 1 µM (340 wild-type kinases [2]; 1 µM 2015, read-out: IRAK1 residual activity) was 94.2%. For the same molecule, the remaining activity at 0.2 µM (340 wild-type kinases [2]; IRAK1, 0.2 µM, read-out: residual activity) was 108%, the remaining activity at 1 µM (340 wild-type kinases [2]; IRAK1, 1 µM, read-out: residual activity) was 94.2% and the remaining activity at 0.2 µM (340 wild-type kinases [3]; 0.2 µM 2015, read-out: DAPK1 residual activity) was 128%. It also gave a remaining activity at 1 µM (340 wild-type kinases [3]; 1 µM 2015, read-out: DAPK1 residual activity) of 135%, a remaining activity at 0.2 µM (340 wild-type kinases [3]; DAPK1, 0.2 µM, read-out: residual activity) of 128% and a remaining activity at 1 µM (340 wild-type kinases [3]; DAPK1, 1 µM, read-out: residual activity) of 135%. The remaining activity at 0.2 µM (340 wild-type kinases [4]; 0.2 µM 2015, read-out: WNK3 residual activity) was 121%, the remaining activity at 1 µM (340 wild-type kinases [4]; 1 µM 2015, read-out: WNK3 residual activity) was 113% and the remaining activity at 0.2 µM (340 wild-type kinases [4]; WNK3, 0.2 µM, read-out: residual activity) was 121%. The remaining activity at 1 µM (340 wild-type kinases [4]; WNK3, 1 µM, read-out: residual activity) was 113%, the remaining activity at 0.2 µM (340 wild-type kinases [5]; 0.2 µM 2015, read-out: TSK2 residual activity) was 104% and the remaining activity at 1 µM (340 wild-type kinases [5]; 1 µM 2015, read-out: TSK2 residual activity) was 106%. The remaining activity at 0.2 µM (340 wild-type kinases [5]; TSK2, 0.2 µM, read-out: residual activity) was 104%, the remaining activity at 1 µM (340 wild-type kinases [5]; TSK2, 1 µM, read-out: residual activity) was 106% and the remaining activity at 0.2 µM (340 wild-type kinases [6]; 0.2 µM 2015, read-out: HIPK3 residual activity) was 104%. The remaining activity at 1 µM (340 wild-type kinases [6]; 1 µM 2015, read-out: HIPK3 residual activity) was 104%, the remaining activity at 0.2 µM (340 wild-type kinases [6]; HIPK3, 0.2 µM, read-out: residual activity) was 104% and the remaining activity at 1 µM (340 wild-type kinases [6]; HIPK3, 1 µM, read-out: residual activity) was 104%. The remaining activity at 0.2 µM (340 wild-type kinases [7]; 0.2 µM 2015, read-out: EPHB2 residual activity) was 97.4%, the remaining activity at 1 µM (340 wild-type kinases [7]; 1 µM 2015, read-out: EPHB2 residual activity) was 98.5% and the remaining activity at 0.2 µM (340 wild-type kinases [7]; EPHB2, 0.2 µM, read-out: residual activity) was 97.4%. For the same molecule, the remaining activity at 1 µM (340 wild-type kinases [7]; EPHB2, 1 µM, read-out: residual activity) was 98.5%.
